Measurements as given in the NIST ThermoML archive (doi:10.1021/je060411g).
± gives the expanded uncertainty stated by the source.

Experiment: molar heat capacity at constant pressure
Settings: 101.33 kPa, Crystal 2

**Q.** Which “molar heat capacity at constant pressure” value (6.04 K, Vacuum adiabatic calorimetry) does the source give for `CC(C)(C)CO` [2,2-dimethyl-1-propanol] here?
**A.** 1.42 ± 0.03 J/K/mol

**Q.** What about the “molar heat capacity at constant pressure” value (6.22 K, Vacuum adiabatic calorimetry) of the same molecule?
**A.** 1.34 ± 0.04 J/K/mol

**Q.** And the “molar heat capacity at constant pressure” value (6.72 K, Vacuum adiabatic calorimetry)?
**A.** 1.62 ± 0.04 J/K/mol

**Q.** And the “molar heat capacity at constant pressure” value (6.93 K, Vacuum adiabatic calorimetry)?
**A.** 1.79 ± 0.04 J/K/mol

**Q.** What about the “molar heat capacity at constant pressure” value (7.63 K, Vacuum adiabatic calorimetry) of the same molecule?
**A.** 2.48 ± 0.06 J/K/mol

**Q.** And the “molar heat capacity at constant pressure” value (7.66 K, Vacuum adiabatic calorimetry)?
**A.** 2.49 ± 0.06 J/K/mol

**Q.** And the “molar heat capacity at constant pressure” value (8.46 K, Vacuum adiabatic calorimetry)?
**A.** 3.25 ± 0.07 J/K/mol

**Q.** What about the “molar heat capacity at constant pressure” value (8.71 K, Vacuum adiabatic calorimetry) of the same molecule?
**A.** 3.26 ± 0.07 J/K/mol

**Q.** What about the “molar heat capacity at constant pressure” value (9.38 K, Vacuum adiabatic calorimetry) of the same molecule?
**A.** 3.5 ± 0.08 J/K/mol

**Q.** What about the “molar heat capacity at constant pressure” value (9.84 K, Vacuum adiabatic calorimetry) of the same molecule?
**A.** 3.94 ± 0.08 J/K/mol

**Q.** What about the “molar heat capacity at constant pressure” value (10 K) of the same molecule?
**A.** 4.09 ± 0.26 J/K/mol

**Q.** What about the “molar heat capacity at constant pressure” value (10.52 K, Vacuum adiabatic calorimetry) of the same molecule?
**A.** 4.52 ± 0.1 J/K/mol

**Q.** And the “molar heat capacity at constant pressure” value (11.19 K, Vacuum adiabatic calorimetry)?
**A.** 4.61 ± 0.1 J/K/mol

**Q.** And the “molar heat capacity at constant pressure” value (11.74 K, Vacuum adiabatic calorimetry)?
**A.** 4.61 ± 0.1 J/K/mol

**Q.** And the “molar heat capacity at constant pressure” value (12.6 K, Vacuum adiabatic calorimetry)?
**A.** 5.48 ± 0.12 J/K/mol

**Q.** What about the “molar heat capacity at constant pressure” value (12.96 K, Vacuum adiabatic calorimetry) of the same molecule?
**A.** 6.1 ± 0.13 J/K/mol

**Q.** And the “molar heat capacity at constant pressure” value (13.95 K, Vacuum adiabatic calorimetry)?
**A.** 7.71 ± 0.16 J/K/mol

**Q.** What about the “molar heat capacity at constant pressure” value (14.12 K, Vacuum adiabatic calorimetry) of the same molecule?
**A.** 7.8 ± 0.16 J/K/mol

**Q.** What about the “molar heat capacity at constant pressure” value (15 K) of the same molecule?
**A.** 9 ± 0.44 J/K/mol

**Q.** And the “molar heat capacity at constant pressure” value (15.22 K, Vacuum adiabatic calorimetry)?
**A.** 9.22 ± 0.19 J/K/mol

**Q.** What about the “molar heat capacity at constant pressure” value (15.26 K, Vacuum adiabatic calorimetry) of the same molecule?
**A.** 9.22 ± 0.19 J/K/mol

**Q.** What about the “molar heat capacity at constant pressure” value (16.54 K, Vacuum adiabatic calorimetry) of the same molecule?
**A.** 10.78 ± 0.22 J/K/mol

**Q.** What about the “molar heat capacity at constant pressure” value (16.63 K, Vacuum adiabatic calorimetry) of the same molecule?
**A.** 10.92 ± 0.23 J/K/mol

**Q.** And the “molar heat capacity at constant pressure” value (17.89 K, Vacuum adiabatic calorimetry)?
**A.** 12.37 ± 0.26 J/K/mol

**Q.** And the “molar heat capacity at constant pressure” value (18.17 K, Vacuum adiabatic calorimetry)?
**A.** 12.68 ± 0.26 J/K/mol

**Q.** What about the “molar heat capacity at constant pressure” value (19.28 K, Vacuum adiabatic calorimetry) of the same molecule?
**A.** 14.02 ± 0.29 J/K/mol

**Q.** And the “molar heat capacity at constant pressure” value (19.75 K, Vacuum adiabatic calorimetry)?
**A.** 14.6 ± 0.3 J/K/mol

**Q.** And the “molar heat capacity at constant pressure” value (20 K)?
**A.** 14.89 ± 0.61 J/K/mol

**Q.** And the “molar heat capacity at constant pressure” value (20.7 K, Vacuum adiabatic calorimetry)?
**A.** 15.68 ± 0.32 J/K/mol

**Q.** What about the “molar heat capacity at constant pressure” value (21.36 K, Vacuum adiabatic calorimetry) of the same molecule?
**A.** 16.44 ± 0.34 J/K/mol

**Q.** What about the “molar heat capacity at constant pressure” value (22.16 K, Vacuum adiabatic calorimetry) of the same molecule?
**A.** 17.26 ± 0.35 J/K/mol

**Q.** And the “molar heat capacity at constant pressure” value (23.02 K, Vacuum adiabatic calorimetry)?
**A.** 18.27 ± 0.37 J/K/mol

**Q.** And the “molar heat capacity at constant pressure” value (23.65 K, Vacuum adiabatic calorimetry)?
**A.** 18.89 ± 0.39 J/K/mol

**Q.** And the “molar heat capacity at constant pressure” value (24.72 K, Vacuum adiabatic calorimetry)?
**A.** 20.07 ± 0.41 J/K/mol

**Q.** And the “molar heat capacity at constant pressure” value (25 K)?
**A.** 20.35 ± 0.7 J/K/mol

**Q.** And the “molar heat capacity at constant pressure” value (25.17 K, Vacuum adiabatic calorimetry)?
**A.** 20.52 ± 0.42 J/K/mol

**Q.** What about the “molar heat capacity at constant pressure” value (26.45 K, Vacuum adiabatic calorimetry) of the same molecule?
**A.** 21.86 ± 0.44 J/K/mol

**Q.** What about the “molar heat capacity at constant pressure” value (26.71 K, Vacuum adiabatic calorimetry) of the same molecule?
**A.** 22.12 ± 0.45 J/K/mol

**Q.** What about the “molar heat capacity at constant pressure” value (27.26 K, Vacuum adiabatic calorimetry) of the same molecule?
**A.** 22.45 ± 0.45 J/K/mol

**Q.** And the “molar heat capacity at constant pressure” value (27.45 K, Vacuum adiabatic calorimetry)?
**A.** 22.66 ± 0.46 J/K/mol

**Q.** And the “molar heat capacity at constant pressure” value (28.26 K, Vacuum adiabatic calorimetry)?
**A.** 23.73 ± 0.48 J/K/mol

**Q.** And the “molar heat capacity at constant pressure” value (28.44 K, Vacuum adiabatic calorimetry)?
**A.** 23.84 ± 0.48 J/K/mol

**Q.** What about the “molar heat capacity at constant pressure” value (29.84 K, Vacuum adiabatic calorimetry) of the same molecule?
**A.** 25.29 ± 0.51 J/K/mol

**Q.** What about the “molar heat capacity at constant pressure” value (30 K) of the same molecule?
**A.** 25.41 ± 0.72 J/K/mol

**Q.** What about the “molar heat capacity at constant pressure” value (30.14 K, Vacuum adiabatic calorimetry) of the same molecule?
**A.** 25.52 ± 0.51 J/K/mol

**Q.** What about the “molar heat capacity at constant pressure” value (31.75 K, Vacuum adiabatic calorimetry) of the same molecule?
**A.** 26.93 ± 0.54 J/K/mol

**Q.** And the “molar heat capacity at constant pressure” value (33.36 K, Vacuum adiabatic calorimetry)?
**A.** 28.48 ± 0.57 J/K/mol

**Q.** And the “molar heat capacity at constant pressure” value (35 K)?
**A.** 29.8 ± 0.82 J/K/mol

**Q.** And the “molar heat capacity at constant pressure” value (35.01 K, Vacuum adiabatic calorimetry)?
**A.** 29.81 ± 0.6 J/K/mol

**Q.** What about the “molar heat capacity at constant pressure” value (36.67 K, Vacuum adiabatic calorimetry) of the same molecule?
**A.** 31.13 ± 0.63 J/K/mol

**Q.** And the “molar heat capacity at constant pressure” value (38.35 K, Vacuum adiabatic calorimetry)?
**A.** 32.76 ± 0.66 J/K/mol

**Q.** And the “molar heat capacity at constant pressure” value (40 K)?
**A.** 33.67 ± 0.91 J/K/mol

**Q.** What about the “molar heat capacity at constant pressure” value (40.05 K, Vacuum adiabatic calorimetry) of the same molecule?
**A.** 33.71 ± 0.68 J/K/mol

**Q.** And the “molar heat capacity at constant pressure” value (41.77 K, Vacuum adiabatic calorimetry)?
**A.** 34.97 ± 0.7 J/K/mol

**Q.** What about the “molar heat capacity at constant pressure” value (43.5 K, Vacuum adiabatic calorimetry) of the same molecule?
**A.** 36.21 ± 0.73 J/K/mol

**Q.** What about the “molar heat capacity at constant pressure” value (45 K) of the same molecule?
**A.** 37.23 ± 0.99 J/K/mol

**Q.** What about the “molar heat capacity at constant pressure” value (45.25 K, Vacuum adiabatic calorimetry) of the same molecule?
**A.** 37.39 ± 0.75 J/K/mol

**Q.** And the “molar heat capacity at constant pressure” value (47.01 K, Vacuum adiabatic calorimetry)?
**A.** 38.58 ± 0.78 J/K/mol

**Q.** And the “molar heat capacity at constant pressure” value (48.78 K, Vacuum adiabatic calorimetry)?
**A.** 39.8 ± 0.8 J/K/mol

**Q.** And the “molar heat capacity at constant pressure” value (50 K)?
**A.** 40.59 ± 1.1 J/K/mol

**Q.** What about the “molar heat capacity at constant pressure” value (50.56 K, Vacuum adiabatic calorimetry) of the same molecule?
**A.** 40.96 ± 0.82 J/K/mol

**Q.** And the “molar heat capacity at constant pressure” value (52.36 K, Vacuum adiabatic calorimetry)?
**A.** 42.15 ± 0.85 J/K/mol

**Q.** What about the “molar heat capacity at constant pressure” value (54.16 K, Vacuum adiabatic calorimetry) of the same molecule?
**A.** 43.42 ± 0.87 J/K/mol

**Q.** And the “molar heat capacity at constant pressure” value (55 K)?
**A.** 43.96 ± 1.1 J/K/mol

**Q.** What about the “molar heat capacity at constant pressure” value (55.98 K, Vacuum adiabatic calorimetry) of the same molecule?
**A.** 44.6 ± 0.9 J/K/mol

**Q.** And the “molar heat capacity at constant pressure” value (57.81 K, Vacuum adiabatic calorimetry)?
**A.** 45.76 ± 0.92 J/K/mol

**Q.** What about the “molar heat capacity at constant pressure” value (59.64 K, Vacuum adiabatic calorimetry) of the same molecule?
**A.** 46.96 ± 0.94 J/K/mol

**Q.** What about the “molar heat capacity at constant pressure” value (60 K) of the same molecule?
**A.** 47.18 ± 1.2 J/K/mol

**Q.** And the “molar heat capacity at constant pressure” value (61.49 K, Vacuum adiabatic calorimetry)?
**A.** 48 ± 0.96 J/K/mol

**Q.** And the “molar heat capacity at constant pressure” value (63.34 K, Vacuum adiabatic calorimetry)?
**A.** 48.9 ± 0.98 J/K/mol
